Test results published in patent US20210380548A1, “Fused [1,2,4]Thiadiazine Derivatives Which Act as KAT Inhibitors of the MYST Family” (CTxT Pty Limited, priority 2017, published 2021).

How the values were obtained:
TIP60-KAT5 [1] = biological target: T1, TIP60-KAT5 (Homo sapiens, UniProt Q92993); experiment: Acetyltransferase biochemical assay (AlphaScreen), KAT5; conditions: Table 1 (TIP60-KAT5); 0.4 μM Acetyl coenzyme A, histone H4, 10 nM enzyme
T1 construct: encoding amino acid residues 2 to 461 (Uniprot Q92993-2) of human KAT5 isoform; made in house; host or cells: E. coli BL21 DE3
T1 sequence (Q92993 2-461 isoform Q92993-2): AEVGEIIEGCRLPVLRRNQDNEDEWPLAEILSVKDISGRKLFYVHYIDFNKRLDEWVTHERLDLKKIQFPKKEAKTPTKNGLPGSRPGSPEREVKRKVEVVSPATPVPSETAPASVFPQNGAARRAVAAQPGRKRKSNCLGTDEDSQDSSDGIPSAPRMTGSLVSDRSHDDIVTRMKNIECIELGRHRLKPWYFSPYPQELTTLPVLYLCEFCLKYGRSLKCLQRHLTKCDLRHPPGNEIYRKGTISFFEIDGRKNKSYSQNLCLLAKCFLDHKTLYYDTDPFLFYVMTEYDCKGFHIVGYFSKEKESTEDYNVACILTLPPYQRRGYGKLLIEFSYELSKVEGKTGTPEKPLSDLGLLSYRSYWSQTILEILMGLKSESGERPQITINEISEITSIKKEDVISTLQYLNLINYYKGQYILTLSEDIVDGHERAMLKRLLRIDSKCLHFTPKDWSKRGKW

MOZ-KAT6A [2] = biological target: T2, MOZ-KAT6A (Homo sapiens, UniProt Q92794, A567V); experiment: Acetyltransferase biochemical assay (AlphaScreen), KAT6A; conditions: Table 2 (MOZ-KAT6A); 10 μM Acetyl coenzyme A, histone H3.1, 5 nM enzyme
T2 construct: encoding amino acid residues 507 to 778 (Uniprot Q92794-1) of human KAT6A; made in house; host or cells: E. coli BL21 DE3
T2 sequence (Q92794 507-778 A567V limits assumed): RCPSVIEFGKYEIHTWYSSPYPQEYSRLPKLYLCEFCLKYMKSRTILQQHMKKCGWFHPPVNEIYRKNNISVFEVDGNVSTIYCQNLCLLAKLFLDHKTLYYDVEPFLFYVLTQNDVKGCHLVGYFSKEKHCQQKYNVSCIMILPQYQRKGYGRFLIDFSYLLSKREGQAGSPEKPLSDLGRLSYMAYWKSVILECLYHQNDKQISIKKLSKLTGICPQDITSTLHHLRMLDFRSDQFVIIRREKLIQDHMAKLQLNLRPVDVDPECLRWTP

HBO-KAT7 [3] = biological target: T3, HBO-KAT7 (Homo sapiens, UniProt O95251); experiment: Acetyltransferase biochemical assay (AlphaScreen), KAT7; conditions: Table 3 (HBO-KAT7); 0.4 μM Acetyl coenzyme A, histone H3.1, 40 nM enzyme
T3 construct: encoding amino acid residues 325 to 611 (Uniprot 095251-1) of human KAT7; made in house; host or cells: E. coli BL21 DE3 RIL
T3 sequence (O95251 with tags, fused parts or gaps): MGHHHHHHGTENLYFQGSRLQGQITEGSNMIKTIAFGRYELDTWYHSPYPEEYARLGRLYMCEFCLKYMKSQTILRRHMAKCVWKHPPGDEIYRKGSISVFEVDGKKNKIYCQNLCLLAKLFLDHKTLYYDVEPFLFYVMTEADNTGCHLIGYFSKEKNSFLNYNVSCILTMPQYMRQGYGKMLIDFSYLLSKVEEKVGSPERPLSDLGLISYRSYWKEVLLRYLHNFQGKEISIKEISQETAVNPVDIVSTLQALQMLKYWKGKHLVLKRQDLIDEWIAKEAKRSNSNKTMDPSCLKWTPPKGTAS

MOF-KAT8 [4] = biological target: T4, MOF-KAT8 (Homo sapiens, UniProt Q9H7Z6); experiment: Acetyltransferase biochemical assay (AlphaScreen), KAT8; conditions: Table 4 (MOF-KAT8); 0.4 μM Acetyl coenzyme A, histone H4, 20 nM enzyme
T4 sequence (Q9H7Z6 177-447): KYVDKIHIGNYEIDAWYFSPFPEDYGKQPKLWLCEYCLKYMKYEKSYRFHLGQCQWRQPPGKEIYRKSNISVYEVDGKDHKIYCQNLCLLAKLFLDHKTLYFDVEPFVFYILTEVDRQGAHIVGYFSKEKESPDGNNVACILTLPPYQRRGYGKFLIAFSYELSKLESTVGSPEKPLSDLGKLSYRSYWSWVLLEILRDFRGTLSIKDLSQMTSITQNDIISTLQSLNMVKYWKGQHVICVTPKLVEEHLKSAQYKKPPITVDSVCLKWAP

MOZ-KAT6A [5] = biological target: T2, MOZ-KAT6A; experiment: Revised Acetyltransferase Biochemical Assay, KAT6A; conditions: Table 8 (MOZ-KAT6A), 1 μM Acetyl coenzyme A
TIP60-KAT5 [6] = biological target: T1, TIP60-KAT5; experiment: Revised Acetyltransferase Biochemical Assay, KAT5; conditions: 10 nM KAT5, 1 μM AcCoA, 100 nM histone H4, 90 min
HBO-KAT7 [7] = biological target: T3, HBO-KAT7; experiment: Revised Acetyltransferase Biochemical Assay, KAT7; conditions: Table 9 (HBO-KAT7), 1 μM Acetyl coenzyme A
MOF-KAT8 [8] = biological target: T4, MOF-KAT8; experiment: Revised Acetyltransferase Biochemical Assay, KAT8

Row | Structure (SMILES) | IC50 (TIP60-KAT5 [1]) | IC50 (MOZ-KAT6A [2]) | IC50 (HBO-KAT7 [3]) | IC50 (MOF-KAT8 [4]) | IC50 (MOZ-KAT6A [5]) | IC50 (TIP60-KAT5 [6]) | IC50 (HBO-KAT7 [7]) | IC50 (MOF-KAT8 [8])
1 | O=C(NCC(c1ccccc1)c1ncco1)C1=Nc2ccc(OC(F)(F)F)cc2S(=O)(=O)N1 (stereo not shown) [Example 5, N-(2-(Oxazol-2-yl)-2-phenylethyl)-7-(trifluoromethoxy)-2H-benzo[e][1,2,4]thiadiazine-3-carboxamide 1,1-dioxide] | 1.17 µM | 0.667 µM | 2.04 µM | 27.7 µM | 0.069 µM | 0.493 µM |  | 
2 | O=C(NCCc1ccccc1-c1ncco1)C1=Nc2ccccc2S(=O)(=O)N1 [Example 7, N-(2-(Oxazol-2-yl)phenethyl)-2H-benzo[e][1,2,4]thiadiazine-3-carboxamide1,1-dioxide] | 11.7 µM | 2.8 µM | 11.9 µM | > 125 µM | 0.316 µM | 5.92 µM | 1.18 µM | 81.6 µM
3 | O=C(NCC(c1ccccc1)c1ncco1)C1=Nc2ccc(C(=O)O)cc2S(=O)(=O)N1 (stereo not shown) [Example 24, 3-((2-(Oxazol-2-yl)-2-phenylethyl)carbamoyl)-2H-benzo[e][1,2,4]thiadiazine-7-carboxylic Acid 1,1-dioxide] | 7.16 µM | 0.127 µM | 0.141 µM | 69.6 µM | 0.11 µM | 5.4 µM | 0.583 µM | 
4 | CN(C)C(=O)c1ccc2c(c1)S(=O)(=O)NC(C(=O)NCC(c1ccccc1)c1ncco1)=N2 (stereo not shown) [Example 33, N^7,N^7-Dimethyl-N^3-(2-(oxazol-2-yl)-2-phenylethyl)-2H-benzo[e][1,2,4]thiadiazine-3,7-dicarboxamide 1,1-dioxide] | 6.95 µM | 0.126 µM | 6.78 µM | 89.6 µM | 0.047 µM | 3.78 µM | 0.551 µM | > 125 µM
5 | CC(=O)c1ccc2c(c1)S(=O)(=O)NC(C(=O)NCC(c1ccccc1)c1ncco1)=N2 (stereo not shown) [Example 43, 7-acetyl-N-(2-(oxazol-2-yl)-2-phenylethyl)-2H-benzo[e][1,2,4]thiadiazine-3-carboxamide 1,1-dioxide] | 2.39 µM | 0.243 µM | 1.99 µM |  | 0.014 µM | 0.266 µM | 0.086 µM | 71.6 µM
6 | O=C(NCC(c1ccccc1)c1ccccc1)C1=Nc2ccccc2S(=O)(=O)N1 [Example 68] | 14.5 µM | 3.81 µM | 0.462 µM |  | 0.108 µM | 7.21 µM | 0.601 µM | 16.5 µM
7 | O=C(NCC(c1ccccc1)n1cccn1)C1=Nc2ccccc2S(=O)(=O)N1 (stereo not shown) [Example 75] | 56.6 µM | 1.72 µM |  |  | 0.308 µM | 14.1 µM | 1.15 µM | > 125 µM
8 | O=C(NCCc1ccccc1)C1=Nc2ccc(Br)cc2S(=O)(=O)N1 [Example 78] | 16.7 µM | 3.74 µM | 4.56 µM |  | 0.203 µM | 4.54 µM | 3.53 µM | > 125 µM
9 | O=C(NCC(O)c1ccccc1)C1=Nc2ccc(Br)cc2S(=O)(=O)N1 (stereo not shown) [Example 82] | 7.82 µM | 9.19 µM |  | > 125 µM |  |  |  | 
10 | COc1ccccc1CCNC(=O)C1=Nc2ccc(I)cc2S(=O)(=O)N1 [Example 86] | 1.17 µM | 2.7 µM | 1.33 µM | 39.4 µM | 0.096 µM | 0.521 µM | 0.787 µM | 42.4 µM
11 | O=C(NCC(O)c1ccccc1)C1=Nc2ccc(I)cc2S(=O)(=O)N1 (stereo not shown) [Example 87] | 4.47 µM | 8.93 µM | 12 µM | 114 µM |  |  |  | 
12 | COC(CNC(=O)C1=Nc2ccc(I)cc2S(=O)(=O)N1)c1ccccc1 (stereo not shown) [Example 88] | 1.19 µM |  | 0.659 µM | 47 µM |  |  |  | 
13 | O=C(NCC(c1ccccc1)c1ncco1)C1=Nc2cccnc2S(=O)(=O)N1 (stereo not shown) [Example 96] | 94.7 µM | 1.17 µM | 3.17 µM |  | 0.149 µM | 13.3 µM | 1.11 µM | > 125 µM
14 | O=C(NCCc1ccccc1OC(F)(F)F)C1=Nc2ccc(Br)cc2S(=O)(=O)N1 [Example 114] | 0.954 µM | 0.861 µM | 0.529 µM | > 125 µM |  |  |  | 
15 | O=C(NCCc1ccccc1O)C1=Nc2ccc(Br)cc2S(=O)(=O)N1 [Example 116] | 4.44 µM | 2.26 µM |  | 56.7 µM |  |  |  | 
16 | O=C(NCC(c1ccccc1)c1ncco1)C1=Nc2ccc(-c3nccs3)cc2S(=O)(=O)N1 (stereo not shown) [Example 134] | 2.17 µM | 0.149 µM | 3.32 µM |  | 0.024 µM | 0.648 µM | 0.72 µM | 15.7 µM
17 | O=C(NCC(c1ccc(F)cc1)c1ncco1)C1=Nc2ccc(Cl)cc2S(=O)(=O)N1 (stereo not shown) [Example 165] |  |  |  | 43.1 µM | 0.031 µM | 6.02 µM | 1.77 µM | > 125 µM
18 | Cc1ccc(C(CNC(=O)C2=Nc3ccc(Cl)cc3S(=O)(=O)N2)c2ncco2)cc1 (stereo not shown) [Example 170] |  |  |  | 3.75 µM | 0.143 µM | 13.3 µM | 1.63 µM | > 125 µM
19 | O=C(NCC(c1ccccc1)c1ccccn1)C1=Nc2ccc(Br)cc2S(=O)(=O)N1 (stereo not shown) [Example 173] |  |  | 0.051 µM | 39.1 µM | 0.011 µM | 0.651 µM | 0.161 µM | 30.4 µM
20 | O=C(NCC(c1ncco1)c1ccccc1I)C1=Nc2ccccc2S(=O)(=O)N1 (stereo not shown) [Example 174, N-(2-(2-iodophenyl)-2-(oxazol-2-yl)ethyl)-2H-benzo[e][1,2,4]thiadiazine-3-carboxamide 1,1-dioxide] |  |  | 7.49 µM | > 125 µM | 0.573 µM | 15.3 µM | 4.15 µM | 
21 | N#Cc1ccccc1C(CNC(=O)C1=Nc2ccccc2S(=O)(=O)N1)c1ncco1 (stereo not shown) [Example 218, N-(2-(2-Cyanophenyl)-2-(oxazol-2-yl)ethyl)-2H-benzo[e][1,2,4]thiadiazine-3-carboxamide 1,1-dioxide] |  |  |  | > 125 µM | 0.153 µM | 16.8 µM | 9.41 µM | > 125 µM
22 | COC(=O)c1ccccc1C(CNC(=O)C1=Nc2ccccc2S(=O)(=O)N1)c1ncco1 (stereo not shown) [Example 219, Methyl 2-(2-(1,1-dioxido-2H-benzo[e][1,2,4]thiadiazine-3-carboxamido)-1-(oxazol-2-yl)ethyl)benzoate] |  |  |  | > 125 µM | 3.59 µM | > 125 µM | 105 µM | > 125 µM
23 | COC(=O)NC(CNC(=O)C1=Nc2ccccc2S(=O)(=O)N1)C1CCCCC1 (stereo not shown) [Example 243, methyl (1-cyclohexyl-2-(1,1-dioxido-2H-benzo[e][1,2,4]thiadiazine-3-carboxamido)ethyl)carbamate] |  |  |  | 82.5 µM | 12.3 µM | 39.9 µM | 77.3 µM | 
